Assay [1] concerns the target T1, Pseudomonas aeruginosa LpxC enzyme (Pseudomonas aeruginosa, UniProt P47205).
T1 construct: made in house; host or cells: E. coli
T1 sequence (P47205 1-303): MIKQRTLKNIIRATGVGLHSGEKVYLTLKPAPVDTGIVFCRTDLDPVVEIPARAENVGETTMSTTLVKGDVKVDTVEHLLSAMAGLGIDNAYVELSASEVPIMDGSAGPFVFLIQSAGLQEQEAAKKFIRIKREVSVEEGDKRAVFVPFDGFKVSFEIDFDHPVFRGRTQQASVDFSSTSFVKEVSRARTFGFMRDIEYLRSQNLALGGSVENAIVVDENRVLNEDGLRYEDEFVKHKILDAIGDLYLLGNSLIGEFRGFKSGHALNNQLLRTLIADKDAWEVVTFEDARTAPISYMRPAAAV
Nature of the assay: IC50 assay, LpxC enzyme from P. aeruginosa (BioTrove RapidFire mass spectrometry). The class given is biochemical. The protocol: In order to assess the compounds biological activity, selected in-vitro assays were conducted on selected compounds of Formula I. One of the assays measured the compounds ability to disrupt the synthesis of lipopolysaccharide, LPS, which is a component of the outer membrane of Gram-negative bacteria. Disruption of this synthesis is lethal to the bacteria. The assay determined the compound's ability to inhibit LpxC, which is the first enzyme in the biosynthetic pathway for LPS (measured as IC50). Additionally, MICs (minimal inhibitory concentrations) were determined for several bacteria. The specific protocols are described below:
A) IC50 Assay, LpxC Enzyme from P. Aeruginosa Labeled as PA LpxC Enzyme IC50):
At the end of 1 hour, 5 ul of 1 N HCl was added to stop the enzyme reaction, the plates were centrifuged, and then processed with the BioTrove Rapidfire HTMS Mass Spectrometry System. A no-enzyme control was used in calculating the IC50 values from the percent conversion values.

Assay [2] has as its system Acinetobacter baumannii/haemolyticus: Multidrug-resistant clinical isolate (AB-3167). As to the kind of experiment: MIC determination (CLSI), AB-3167. Type of assay: cell-based. The note with it: Acinetobacter baumannii/haemolyticus multidrug-resistant clinical isolate; overnight incubation; lower of duplicate values; read-out: AB-3167 (MIC). The protocol: (§1) The in vitro antibacterial activity of compounds described in the Examples was evaluated by minimum inhibitory concentration (MIC) testing according to Clinical and Laboratory Standards Institute (CLSI) Guidelines. See: Clinical and Laboratory Standards Institute. Methods for Dilution Antimicrobial Susceptibility Tests for Bacteria that Grow Aerobically; Approved Standard-Eighth Edition. CLSI document M7-A8 [ISBN 1-56238-689-1]. Clinical and Laboratory Standards Institute, 940 West Valley Road, Suite 1400, Wayne, Pa. 19087-1898 USA, 2006; also Clinical and Laboratory Standards Institute. Performance Standards for Antimicrobial Susceptibility Testing; Twentieth Informational Supplement. CLSI document M100-S20 [ISBN1-56238-716-2]. Clinical and Laboratory Standards Institute.
(§2) The MIC determination is a standard laboratory method for evaluating the antibacterial activity of a compound. The MIC represents the lowest drug concentration that inhibits visible growth of bacteria following overnight incubation. […] Typically, the drug concentration range is broken down into 2-fold increments (e.g. 0.06 μg/mL, 0.12 μg/mL. 0.25 μg/mL, 0.50 μg/mL, 1.0 μg/mL, etc.) and the various drug concentrations are all individually incubated overnight with approximately the same number of bacteria. The MIC is then determined by visually inspecting the drug effect at each concentration, and identifying the lowest drug concentration that has inhibited bacterial growth as compared to the drug free control. Typically, bacteria continue to grow at drug concentrations lower than the MIC and don't grow at concentrations at and above the MIC.
(§3) The MIC values described in Tables 2 and 3 below were derived from assays wherein each test compound was evaluated in duplicate. In cases where the duplicate values varied by 0-2-fold, the lower of the two values was reported below. Generally speaking, if the duplicate values varied by more than 2-fold, the assay was considered non-valid and was repeated until the variation between duplicate runs was ≦2-fold. In line with the CLSI guidelines referred to above, both control organisms and reference compounds were utilized in each MIC assay to provide proper quality control. MIC values generated with these control organisms and reference compounds were required to fall within a defined range for the assay to be considered valid and be included herein. Those skilled in the art will recognize that MIC values can and do vary from experiment to experiment. Generally speaking, it should be recognized that MIC values often vary +/−2-fold from experiment to experiment. While a single MIC is reported for each compound and each microorganism, the reader should not conclude that each compound was only tested once. Several of the compounds were subjected to multiple tests. The data reported in Tables 2 and 3 is reflective of the compounds relative activity and different MICs may have been generated on these occasions in line with the guidelines described above.
(§4) The following bacterial strains were used in these MIC determinations:
(1) Acinetobacter baumannii/haemolyticus: Multidrug-resistant clinical isolate labeled as AB-3167 in Table 5;

Assay [3] has as its system Escherichia coli EC-1: VOGEL, mouse virulent. As to the kind of experiment: MIC determination (CLSI), EC-1. The class given is cell-based. To be noted: Escherichia coli, read-out: EC-1 (MIC). The procedure:
as §1, §2, §3, §4
(2) Escherichia coli EC-1: VOGEL, mouse virulent labeled as EC-1 in Table 5;

Assay [4] deals with Klebsiella pneumoniae: Ciprofloxacin-resistant isolate, expresses ESBL, clinical isolate (KP-3700). Nature of the assay: MIC determination (CLSI), KP-3700. The class given is cell-based. To be noted: overnight incubation, lower of duplicate values. The procedure: as §1, §2, §3, §4
(3) Klebsiella pneumoniae: Ciprofloxacin-resistant isolate, expresses extended-spectrum beta-lactamases (ESBL), clinical isolate, labeled as KP-3700 in Table 5.

The subject of assay [5] is Pseudomonas aeruginosa UI-18: Wild-type (PA-7). Nature of the assay: MIC determination (CLSI), PA-7. Type of assay: cell-based. The note with it: Pseudomonas aeruginosa UI-18 wild-type; overnight incubation; lower of duplicate values; read-out: PA-7 (MIC). The protocol:
as §1, §2, §3, §4
(4) Pseudomonas aeruginosa UI-18: Wild-type, labeled as PA-7 in Table 5;

Where [6] appears, read: P. aeruginosa LpxC enzyme 0.1 nM, 25° C., 1 hour, pH 8.0, read-out: PA: IC50.

In brackets after ≈: the same amount, converted by molar mass. Where two headings read alike, the source gives them in different places. Bounds are passed on as bounds.

Usually IC50 stands for the concentration needed to halve the response being measured. Usually MIC stands for the lowest concentration that inhibits growth of the organism.

With `Cc1c(F)cccc1-c1cnn(CCC(C)(C(=O)NO)S(C)(=O)=O)c1` (stereo not shown) [Example 53, 4-[4-(3-fluoro-2-methylphenyl)-1H-pyrazol-1-yl]-N-hydroxy-2-methyl-2-(methylsulfonyl)butanamide], in assay [1] (setting [6]), the IC50 was determined as 9.28 nM. In addition, the MIC was more than 64 µg/mL in assay [2], 32 µg/mL (≈ 86.6 µM) in assay [3] and 16 µg/mL (≈ 43.3 µM) in assay [5]. In assay [4], the “KP-3700 (MIC)” value is more than 64.0 µg/mL.

In assay [1], `CC(CCn1cc(-c2ccccc2)cn1)(C(=O)NO)S(C)(=O)=O` (stereo not shown) [Example 40, N-hydroxy-2-methyl-2-(methylsulfonyl)-4-(4-phenyl-1H-pyrazol-1-yl)butanamide] yielded a concentration for half-maximal inhibition (IC50) of 4.63 nM. The MIC in assay [2] was more than 64 µg/mL; in assay [3], 32 µg/mL (≈ 94.8 µM); in assay [5], 2 µg/mL (≈ 5.93 µM). For the same molecule, the “KP-3700 (MIC)” value in assay [4] was more than 64.0 µg/mL.

`CC(CCn1cc(-c2ccccc2Br)nn1)(C(=O)NO)S(C)(=O)=O` (stereo not shown) [Example 38, 4-[4-(2-bromophenyl)-1H-1,2,3-triazol-1-yl]-N-hydroxy-2-methyl-2-(methylsulfonyl)butanamide]: the IC50 in assay [1] (setting [6]) is 18.9 nM. Also, the MIC is more than 64 µg/mL in assay [2], 16 µg/mL (≈ 38.3 µM) in assay [3] and 32 µg/mL (≈ 76.7 µM) in assay [5]. Further, the “KP-3700 (MIC)” value in assay [4] is more than 64.0 µg/mL.

On to `CC(CCn1cc(-c2ccc(C3(C#N)CC3)cc2)cn1)(C(=O)NO)S(C)(=O)=O` (stereo not shown) [Example 66, 4-{4-[4-(1-cyanocyclopropyl)phenyl]-1H-pyrazol-1-yl}-N-hydroxy-2-methyl-2-(methylsulfonyl)butanamide], for which the 50% inhibitory concentration (IC50) in assay [1] (setting [6]) worked out at 2.83 nM. The MIC is more than 64 µg/mL in assay [2], more than 64 µg/mL in assay [3] and 16 µg/mL (≈ 39.8 µM) in assay [5]. In addition, the “KP-3700 (MIC)” value in assay [4] is more than 64.0 µg/mL.

`Cc1ccc(C)c(OCc2cn(CCC(C)(C(=O)NO)S(C)(=O)=O)nn2)c1` (stereo not shown) [Example 39, 4-{4-[(2,5-dimethylphenoxy)methyl]-1H-1,2,3-triazol-1-yl}-N-hydroxy-2-methyl-2-(methylsulfonyl)butanamide]: in assay [1] (setting [6]), the IC50 turned out to be 51.3 nM. The MIC in assay [2], in assay [3] and in assay [5] was more than 64 µg/mL throughout. For the same molecule, the “KP-3700 (MIC)” value in assay [4] is more than 64.0 µg/mL.

For the molecule `CC(CCn1cc(-c2cccc(-c3cc[nH]n3)c2)cn1)(C(=O)NO)S(C)(=O)=O` (stereo not shown) [Example 71, N-hydroxy-2-methyl-2-(methylsulfonyl)-4-{4-[3-(1H-pyrazol-3-yl)phenyl]-1H-pyrazol-1-yl}butanamide], the IC50 in assay [1] (setting [6]) came out at 5.12 nM. The MIC in assay [2], in assay [3] and in assay [5] was more than 64 µg/mL in each case. For the same molecule, the “KP-3700 (MIC)” value in assay [4] was more than 64.0 µg/mL.

`Cc1cc(-c2ccc(-c3cnn(CCC(C)(C(=O)NO)S(C)(=O)=O)c3)cc2)[nH]n1` (stereo not shown) [Example 84, N-hydroxy-2-methyl-4-{4-[4-(3-methyl-1H-pyrazol-5-yl)phenyl]-1H-pyrazol-1-yl}-2-(methylsulfonyl)butanamide]: the IC50 in assay [1] (setting [6]) amounted to 6.44 nM. Besides, the MIC in assay [2] is more than 64 µg/mL; in assay [3], 16 µg/mL (≈ 38.3 µM); in assay [5], 64 µg/mL (≈ 153 µM). Moreover, the “KP-3700 (MIC)” value in assay [4] is more than 64.0 µg/mL.

`C[C@@](CCn1cc(-c2nc3ccccc3o2)cn1)(C(=O)NO)S(C)(=O)=O` [Example 10, (2R)-4-[4-(1,3-benzoxazol-2-yl)-1H-pyrazol-1-yl]-N-hydroxy-2-methyl-2-(methylsulfonyl)butanamide]: the IC50 in assay [1] (setting [6]) was 13.8 nM. Further, the MIC in assay [2], in assay [3] and in assay [5] was 32 µg/mL (≈ 84.6 µM) each time. Moreover, in assay [4], the “KP-3700 (MIC)” value was more than 64.0 µg/mL.

Regarding `CC(CCn1cc(-c2ccc3cc(C(N)=O)[nH]c3c2)cn1)(C(=O)NO)S(C)(=O)=O` (stereo not shown) [Example 86, 6-{1-[4-(hydroxyamino)-3-methyl-3-(methylsulfonyl)-4-oxobutyl]-1H-pyrazol-4-yl}-1H-indole-2-carboxamide], in assay [1] (setting [6]), the IC50 amounted to 14.5 nM. The MIC in assay [2], in assay [3] and in assay [5] was more than 64 µg/mL each time. In addition, in assay [4], the “KP-3700 (MIC)” value is more than 64.0 µg/mL.

For `CC(CCn1cc(-c2ccc(F)c(C#N)c2)cn1)(C(=O)NO)S(C)(=O)=O` (stereo not shown) [Example 59, 4-[4-(3-cyano-4-fluorophenyl)-1H-pyrazol-1-yl]-N-hydroxy-2-methyl-2-(methylsulfonyl)butanamide], the IC50 in assay [1] (setting [6]) stood at 11.6 nM. Also, the results for the MIC in assay [2], in assay [3] and in assay [5] were more than 64 µg/mL, more than 64 µg/mL and 64 µg/mL (≈ 168 µM), respectively. Further, the “KP-3700 (MIC)” value in assay [4] is more than 64.0 µg/mL.

`CC(CCn1cc(-c2cccc(OC(F)F)c2)cn1)(C(=O)NO)S(C)(=O)=O` (stereo not shown) [Example 68, 4-{4-[3-(difluoromethoxy)phenyl]-1H-pyrazol-1-yl}-N-hydroxy-2-methyl-2-(methylsulfonyl)butanamide]: the half-inhibitory concentration (IC50) in assay [1] (setting [6]) was determined as 2.1 nM. In addition, the figures for the MIC in assay [2], in assay [3] and in assay [5] were more than 64 µg/mL, 64 µg/mL (≈ 159 µM) and 8 µg/mL (≈ 19.8 µM), respectively. The “KP-3700 (MIC)” value in assay [4] is more than 64.0 µg/mL.

Take `CC(CCn1cc(-c2ccc(C(F)(F)F)nc2)cn1)(C(=O)NO)S(C)(=O)=O` (stereo not shown) [Example 77, N-hydroxy-2-methyl-2-(methylsulfonyl)-4-{4-[6-(trifluoromethyl)pyridin-3-yl]-1H-pyrazol-1-yl}butanamide]: the IC50 in assay [1] (setting [6]) was determined as 19.5 nM. Moreover, the MIC in assay [2] is more than 64 µg/mL; in assay [3] it was more than 64 µg/mL; in assay [5], 64 µg/mL (≈ 157 µM). In assay [4], the “KP-3700 (MIC)” value is more than 64.0 µg/mL.

In the case of `Cc1cc(O)ccc1-c1cnn(CCC(C)(C(=O)NO)S(C)(=O)=O)c1` (stereo not shown) [Example 49, N-hydroxy-4-[4-(4-hydroxy-2-methylphenyl)-1H-pyrazol-1-yl]-2-methyl-2-(methylsulfonyl)butanamide], in assay [1] (setting [6]), the IC50 amounted to 90.4 nM. For the same molecule, the MIC in assay [2], in assay [3] and in assay [5] was more than 64 µg/mL throughout. The “KP-3700 (MIC)” value in assay [4] is more than 64.0 µg/mL.

Turning to `Cc1cc(-c2cnn(CCC(C)(C(=O)NO)S(C)(=O)=O)c2)ccc1F` (stereo not shown) [Example 52, 4-[4-(4-fluoro-3-methylphenyl)-1H-pyrazol-1-yl]-N-hydroxy-2-methyl-2-(methylsulfonyl)butanamide], in assay [1] (setting [6]), the IC50 was 6.93 nM. Moreover, the MIC is more than 64 µg/mL in assay [2], 16 µg/mL (≈ 43.3 µM) in assay [3] and 2 µg/mL (≈ 5.41 µM) in assay [5]. In addition, in assay [4], the “KP-3700 (MIC)” value is 64 µg/mL.

Values taken from patent publication US8809333B2, “Imidazole, pyrazole, and triazole derivatives useful as antibacterial agents” (Pfizer Inc., priority 2011, dated 2014).
